Here are results for one compound from US8173821B2, “Serotonin and norepinephrine reuptake inhibitor” (Eli Lilly and Company, priority 2009, dated 2012).

Assay [1] deals with T1, Human norepinephrine (NET) transporter (Homo sapiens, UniProt P23975).
T1 construct: expressed in transfected cells; host or cells: HEK293
Briefly: In vitro inhibitor activity assay (3H-norepinephrine uptake). The assay is classed as cell-based. Particulars: transfected HEK293 cells, read-out: IC50 hNET (norepinephrine reuptake). The procedure:
(§1) Human serotonin (SERT) or norepinephrine (NET) transporters are cloned into a pcDNA3 vector and stably transfected into HEK293 cells. Both assays are modified from methods described by Eshleman et al., J. Pharmacol. Exptl Ther., 289, 877-885 (1999)) and Wall et al., Mol. Pharmacol., 47, 544-550 (1995). Cells are grown on poly-D-lysine coated flasks or 96-well plates in D-MEM/F-12 3:1 (3 part of Dulbecco's Modified Eagle Medium in 1 part of Nutrient Mix F-12 medium) containing 5% fetal bovine serum, 250 μg/mL geneticin, and 20 mM Hepes. Cells are plated at 40,000 cells per well in 200 μL of medium and incubated for 18-24 hours at 37° C. prior to the assay. The assay uptake buffer consists of Krebs-Ringer bicarbonate stock supplemented with 1.26% sodium bicarbonate, 20 mM HEPES, and 100 μM each of pargyline and ascorbic acid. Following a 30 minute pre-incubation with the compound or indatraline (as a positive control), ^3H-serotonin or ^3H-norepinephrine is added for 1 min. and 50 sec. The ^3H-substrate is then removed, and the cells washed 4× with 100 μL of cold uptake buffer using multimek. […] Microscint™ 40 is added to each well and the radioactivity is quantitated for 1 min. per well. Results are analyzed as IC50 values using a four-parameter logistic curve fitting program (ActivityBase v5.3.1.22).

Assay [2] deals with T2, Human serotonin (SERT) transporter (Homo sapiens, UniProt P31645).
T2 construct: expressed in transfected cells; host or cells: HEK293
Description: In vitro inhibitor activity assay (3H-serotonin uptake). Particulars: transfected HEK293 cells, read-out: IC50 hSERT (serotonin reuptake). The assay is classed as cell-based. How it is done:
as §1

Assay [3] concerns the target T3, norepinephrine transporter (Rattus norvegicus, UniProt Q63380).
T3 construct: from tissue; host or cells: rat cortex, in vivo
Briefly: Alpha MMT: monoamine depletion inhibition assay. It is filed as in vivo. Particulars: rat cortex. From the text:
DL-Para-chloroamphetamine (PCA) is transported into serotonergic neurons via the neuronal transporter and produces a long-lasting depletion of rat brain serotonin (5-HT) concentrations. Alpha-methyl-m-tyrosine (α-MMT) is a noradrenergic depleting agent that is β-hydroxylated to metaraminol in vivo and actively transported into norepinephrine (NE) neurons via the neuronal transporter producing a decrease in NE levels in rat brain. The depletion of rat brain 5-HT levels by PCA and rat cortical NE concentrations by α-MMT is blocked by agents with 5-HT and NE reuptake inhibitor activity. Compounds of the present invention may be assayed for their activity to prevent the depletion of rat brain 5-HT concentrations by PCA and the depletion of rat cortical NE concentrations by a-MMT in fed and fasted rats in vivo using the following methods.
Male Sprague Dawley rats weighing 160-180 grams are fasted overnight or allowed food ad libidum. […] All compounds are administered at 1 mL/kg. Animals are sacrificed 2 hr. after PCA or α-MMT administration. Tissues are dissected, frozen on dry ice and stored at −70° prior to analysis. […] The data are collected using an EZChrom™ chromatography data system (Scientific Software, San Ramon, Calif.) which calculates peak heights and sample concentrations. Analysis of variance, followed by Tukey's Honestly Significant Difference test post hoc, identifies significant differences between treatment groups (P≦0.05). Doses that antagonized the PCA- or α-MMT-induced depletion of monoamines by 50 percent, (ED50's) are calculated using a best-fit linear regression analysis.

The target of assay [4] is T4, Human serotonin transporter (SERT) (Homo sapiens, UniProt P31645).
T4 construct: expressed in transfected cells; host or cells: HEK293 (membrane stocks)
Description: In vitro transporter affinity assay (SPA radioligand binding), SERT. To be noted: membranes of transfected HEK293 cells, 3H-citalopram; read-out: Ki hSERT. How it is done:
(§2) Human serotonin transporter (SERT), norepinephrine transporter (NET), or dopamine transporter (DAT) are cloned into a pcDNA3 vector and stably transfected into HEK293 cells. […] Fluoxetine (100 μM) is used to determine non-specific binding, and venlafaxine is used as a positive control. NET membranes are used at a concentration of 8 μg/well in assay buffer containing 50 mM Tris, 300 mM NaCl, and 5 mM KCl (pH 7.4). ^3H-Nisoxetine is used as the tracer, 100 μM desipramine serves as a measure of non-specific binding, and nisoxetine is used as the positive control. For DAT binding assays, the assay buffer is the same as for SERT, membranes are used at 20 μg/well, 100 μM nomifensine is used to determine non-specific binding, ^3H-WIN 35428 (Perkin Elmer) serves as the radiotracer, and nomifensine is used as the positive control. In all cases, 0.5 mg/well of wheat-germ agglutinin scintillation proximity assay beads (WGA-SPA, GE Health Sciences) are used to capture the membranes, and plates are incubated for 3 hours at room temperature. Radioactivity is measured and Ki values calculated using a four-parameter logistic curve fitting program (ActivityBase v5.3.1.22).

Assay [5] addresses T5, Human dopamine transporter (DAT) (Homo sapiens, UniProt Q01959).
T5 construct: expressed in transfected cells; host or cells: HEK293 (membrane stocks)
Description: In vitro transporter affinity assay (SPA radioligand binding), DAT. To be noted: membranes of transfected HEK293 cells, 3H-WIN 35428; read-out: Ki hDAT. The procedure: as §2

Assay [6] has as its target T6, serotonin transporter (Rattus norvegicus, UniProt P31652).
T6 construct: from tissue; host or cells: rat frontal cortex, in vivo
Description: In vivo transporter occupancy assay. Particulars: 1 hr. post dosing. How it is done:
Male Sprague-Dawley rats weighing 240-280 gm in groups of three are used to determine serotonin transporter occupancy. Animals are fasted at least 12 hr. before the start of each experiment. Animals are orally administered vehicle or 0.10, 0.33, 1.00, 3.33 or 10.00 mg/kg doses of test compound in 4% Glucose in 25 mM Phosphate buffer, (pH=3.0) containing 0.1, 0.33, 1, 3.33, or 10% CAPTISOL™ (concentration of CAPTISOL™ (%)=dose of test compound (mg/kg)). […] After an additional 40 min., rats are sacrificed via cervical dislocation, and a portion of the frontal cortex is removed and placed on dry ice. An additional control group of three rats is dosed with paroxetine maleate at 12 mg/kg, i.v., followed by N,N-dimethyl-2-(2-amino-4-cyanophenylthio)-benzylamine (10 μg/kg) 1 hr. later.
Tissues are allowed to thaw and then four volumes (w/v) of acetonitrile containing 0.1% formic acid is added. Samples are homogenized using an ultrasonic dismembrator probe and centrifuged for 16 min. at 14,000×g. One volume of the supernatant is added to 3 volumes of water in an autosampler vial and vortexed. Separation is achieved with a Zorbax C18 HPLC column and a mobile phase gradient of from 20% to 90% acetonitrile/water, each with 0.1% formic acid. The total HPLC run time is 3.5 min with an additional 2.0 min re-equilibration time. An API4000 triple quadrupole mass spectrometer (Applied Biosystems, Foster City, Calif., USA) operating in MRM mode is used for detection. The ion transition monitored is 284.1/239.1 m/z for N,N-dimethyl-2-(2-amino-4-cyanophenylthio)-benzylamine.
The level of N,N-dimethyl-2-(2-amino-4-cyanophenylthio)-benzylamine (tracer) in the cortex of vehicle-pretreated animals represents the sum of nonspecific and specific binding and is assigned the value of 0% occupancy (all receptors available to the tracer). The lower level of tracer in animals pretreated with the very high intravenous dose of paroxetine maleate, the positive control group, represents the nonspecific binding and is assigned the value of 100% occupancy (no receptors available to the tracer). Levels of tracer in the cortex following oral administration of test compound are interpolated linearly between these two extremes in order to determine the percent serotonin transporter occupancy. Data are expressed as means±SEM (n=3/group) calculated using Prism version 3.0 (GraphPad Software Inc., San Diego, Calif., USA). The ED80 values are obtained by fitting the data to a sigmoidal curve using nonlinear regression.

Assay [7] concerns the target T7, Human norepinephrine transporter (NET) (Homo sapiens, UniProt P23975).
T7 construct: expressed in transfected cells; host or cells: HEK293 (membrane stocks)
Briefly: In vitro transporter affinity assay (SPA radioligand binding), NET. To be noted: membranes of transfected HEK293 cells, 3H-nisoxetine; read-out: Ki hNET. How it is done: as §2

The test system of assay [8] is Formalin induced pain. Briefly: Manual formalin test. It is filed as in vivo. Particulars: rat. The procedure: The manual formalin test is performed in custom-made Plexiglas boxes approx. 25 cm×25 cm×20 cm in size. A mirror placed at the back of the cage allows the unhindered observation of the formalin injected paw. Rats (Charles River (CRL) Sprague Dawley (SD)) are placed individually in the cubicles at least 30 min. prior to the experiment. All testing is conducted between 08:00 and 14:00 h and the testing room temperature is maintained at 21-23° C. Peripherally administered test compounds are dosed at varying times before the formalin challenge. Formalin (50 μL of a 5% solution in saline) is injected subcutaneously into the dorsal lateral surface of the right hind paw with a 27 gauge needle. Observation starts immediately after the formalin injection. Formalin induced pain is quantified by recording the number of seconds each licking event lasts in 5 min. intervals. The pain scoring is measured for 50 min. after the formalin injection. Two phases of pain behavior are observed as previously described (Wheeler-Aceto, H., Porreca, F. and Cowan, A., The rat paw formalin test: comparison of noxious agents, Pain 40 (1990) 229-238.). The early phase starts immediately after the formalin injection and lasts approximately 5 min., followed by the late phase that starts between minutes 10-15 with a maximum response typically observed around 25-35 min. after the formalin injection. After the 50 min. observation period, animals are sacrificed with CO2.
Of the different scoring parameters reported for the formalin test, the total time spent licking and biting the injected paw is considered to be most relevant. (Abbott et al., The formalin test: scoring properties of the first and second phases of the pain response in rats, Pain 60 (1995) 91-102; Coderre et al., The formalin test: a validation of the weighted-scores method of the behavioral pain rating, Pain 54 (1993) 43-50).) The early phase score is the sum of time spent licking (seconds) from time 0 to 5 min. The late phase score is obtained by adding the total number of seconds spent licking from minute 16 to min. 40 of the observation period. Data are presented as means with standard errors of means (±SEM). Data is evaluated by one-way analysis of variance (ANOVA) and the appropriate contrasts analyzed by Dunnett “t′ test for two sided comparisons. Differences are considered to be significant if the P-value is less than 0.05. (Abbott, supra.; Coderre, supra.; and Wheeler-Aceto, supra.)

T3 sequence (Q63380 1-617): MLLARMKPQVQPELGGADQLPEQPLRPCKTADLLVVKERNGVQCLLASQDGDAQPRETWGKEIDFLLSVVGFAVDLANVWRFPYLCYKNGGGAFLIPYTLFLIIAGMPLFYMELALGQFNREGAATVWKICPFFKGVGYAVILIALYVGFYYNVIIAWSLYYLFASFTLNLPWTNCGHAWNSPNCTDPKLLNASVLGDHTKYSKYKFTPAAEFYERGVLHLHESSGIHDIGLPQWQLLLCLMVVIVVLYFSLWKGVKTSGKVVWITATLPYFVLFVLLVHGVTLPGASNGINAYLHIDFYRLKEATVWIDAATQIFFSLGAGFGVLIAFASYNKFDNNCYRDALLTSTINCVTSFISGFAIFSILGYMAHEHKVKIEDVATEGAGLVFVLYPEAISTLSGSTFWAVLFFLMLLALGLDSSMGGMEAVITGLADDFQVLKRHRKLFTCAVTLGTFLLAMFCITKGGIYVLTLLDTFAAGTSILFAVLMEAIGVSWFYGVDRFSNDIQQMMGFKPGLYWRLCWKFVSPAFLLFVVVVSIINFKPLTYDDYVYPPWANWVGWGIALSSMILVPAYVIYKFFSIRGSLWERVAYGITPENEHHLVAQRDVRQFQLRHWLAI
T6 sequence (P31652 whole entry): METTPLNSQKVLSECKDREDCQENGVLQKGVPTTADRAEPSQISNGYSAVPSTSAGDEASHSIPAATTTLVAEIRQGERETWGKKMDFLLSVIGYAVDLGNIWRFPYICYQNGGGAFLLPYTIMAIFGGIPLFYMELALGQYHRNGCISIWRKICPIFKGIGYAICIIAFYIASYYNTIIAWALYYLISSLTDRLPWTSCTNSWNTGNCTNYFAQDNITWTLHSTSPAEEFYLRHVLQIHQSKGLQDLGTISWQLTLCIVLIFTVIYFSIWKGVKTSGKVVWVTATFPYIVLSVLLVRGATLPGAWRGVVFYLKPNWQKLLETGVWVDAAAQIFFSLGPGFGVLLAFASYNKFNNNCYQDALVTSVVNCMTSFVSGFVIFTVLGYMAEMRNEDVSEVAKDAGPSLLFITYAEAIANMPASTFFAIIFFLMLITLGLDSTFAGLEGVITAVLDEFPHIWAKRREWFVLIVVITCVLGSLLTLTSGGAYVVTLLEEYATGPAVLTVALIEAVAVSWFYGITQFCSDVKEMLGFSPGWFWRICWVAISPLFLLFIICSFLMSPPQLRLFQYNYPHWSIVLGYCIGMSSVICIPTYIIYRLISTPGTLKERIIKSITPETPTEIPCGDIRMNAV
T2 sequence (P31645 whole entry): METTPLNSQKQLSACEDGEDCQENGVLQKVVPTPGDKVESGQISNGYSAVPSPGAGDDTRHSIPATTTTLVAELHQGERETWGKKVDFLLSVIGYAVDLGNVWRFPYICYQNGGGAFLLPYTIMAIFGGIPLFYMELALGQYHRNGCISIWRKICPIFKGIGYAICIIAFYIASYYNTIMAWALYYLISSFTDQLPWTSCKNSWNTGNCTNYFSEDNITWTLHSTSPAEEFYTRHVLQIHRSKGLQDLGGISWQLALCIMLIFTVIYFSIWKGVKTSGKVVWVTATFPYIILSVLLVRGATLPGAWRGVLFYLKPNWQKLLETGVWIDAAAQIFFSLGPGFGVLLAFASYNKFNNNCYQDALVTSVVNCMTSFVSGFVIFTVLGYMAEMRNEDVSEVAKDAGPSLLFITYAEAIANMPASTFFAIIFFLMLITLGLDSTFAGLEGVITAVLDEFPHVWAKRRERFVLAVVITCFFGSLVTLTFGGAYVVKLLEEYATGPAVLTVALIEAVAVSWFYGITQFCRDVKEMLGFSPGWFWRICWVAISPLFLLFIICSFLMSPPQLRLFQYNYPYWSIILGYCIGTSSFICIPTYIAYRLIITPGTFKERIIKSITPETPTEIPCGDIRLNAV
T4 sequence (P31645 whole entry): as above
T7 sequence (P23975 whole entry): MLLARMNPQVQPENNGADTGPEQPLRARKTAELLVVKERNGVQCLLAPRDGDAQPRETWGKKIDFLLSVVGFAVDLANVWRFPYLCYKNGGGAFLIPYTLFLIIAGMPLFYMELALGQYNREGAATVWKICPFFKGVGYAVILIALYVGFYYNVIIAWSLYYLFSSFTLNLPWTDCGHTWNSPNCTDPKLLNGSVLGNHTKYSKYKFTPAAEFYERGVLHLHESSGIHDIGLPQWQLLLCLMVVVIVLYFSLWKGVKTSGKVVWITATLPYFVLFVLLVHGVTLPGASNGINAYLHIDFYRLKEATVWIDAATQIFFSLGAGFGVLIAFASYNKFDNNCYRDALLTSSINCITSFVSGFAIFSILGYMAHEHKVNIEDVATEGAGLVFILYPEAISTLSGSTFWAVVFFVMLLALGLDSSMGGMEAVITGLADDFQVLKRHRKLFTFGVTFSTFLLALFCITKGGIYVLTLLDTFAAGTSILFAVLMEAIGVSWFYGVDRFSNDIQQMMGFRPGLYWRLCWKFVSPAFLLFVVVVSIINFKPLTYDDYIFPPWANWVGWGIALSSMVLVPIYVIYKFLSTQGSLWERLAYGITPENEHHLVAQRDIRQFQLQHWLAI
T1 sequence (P23975 whole entry): as above
T5 sequence (Q01959 whole entry): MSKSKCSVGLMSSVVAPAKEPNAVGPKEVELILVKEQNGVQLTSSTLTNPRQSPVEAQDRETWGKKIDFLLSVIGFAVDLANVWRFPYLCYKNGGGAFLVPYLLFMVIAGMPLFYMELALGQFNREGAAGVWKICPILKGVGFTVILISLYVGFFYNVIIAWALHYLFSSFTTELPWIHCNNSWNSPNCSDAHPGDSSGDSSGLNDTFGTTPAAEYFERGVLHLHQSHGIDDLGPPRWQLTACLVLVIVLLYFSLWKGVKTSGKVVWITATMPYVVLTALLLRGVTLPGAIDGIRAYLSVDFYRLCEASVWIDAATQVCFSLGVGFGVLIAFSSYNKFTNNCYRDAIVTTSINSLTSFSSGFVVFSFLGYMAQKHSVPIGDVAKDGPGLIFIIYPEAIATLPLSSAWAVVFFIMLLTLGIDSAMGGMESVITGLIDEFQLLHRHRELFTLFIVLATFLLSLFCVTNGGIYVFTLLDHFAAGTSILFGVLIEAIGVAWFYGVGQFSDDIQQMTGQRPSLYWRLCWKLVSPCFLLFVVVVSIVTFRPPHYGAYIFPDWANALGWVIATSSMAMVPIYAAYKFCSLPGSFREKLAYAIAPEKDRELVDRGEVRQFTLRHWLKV

In the case of `COc1ccc(O[C@@H](CC(C)C)[C@H]2CCNC2)c(C)n1.O=C(O)C(O)C(O)C(=O)O` [EXAMPLE 19, (3S)-3-(1-(6-methoxy-2-methyl-3-pyridyloxy)-3-methyl-butyl)-pyrrolidine, L-tartrate (S-2)], the IC50 in assay [1] was determined as 7.34 ± 1.48 nM; in assay [2], 2.15 ± 0.7 nM. Also, the inhibition at 3 mg/kg in assay [3] (po, 3 mg/kg p.o., read-out: % Inhibition (α-MMT induced depletion of norepinephrine)) is 21%. In addition, in assay [3] (po, 10 mg/kg p.o., read-out: % Inhibition (α-MMT induced depletion of norepinephrine)), the inhibition at 10 mg/kg amounted to 79%. Further, in assay [3] (po, 30 mg/kg p.o., read-out: % Inhibition (α-MMT induced depletion of norepinephrine)), the inhibition at 30 mg/kg stood at 115%. The “% Inhibition (α-MMT induced depletion of norepinephrine)” value in assay [3] (0.3 mg/kg p.o.) turned out to be 7.0%; in assay [3] (1 mg/kg p.o.), 5.6%. Besides, the Ki in assay [4] was found to be 0.199 ± 0.02 nM; in assay [5] it was 461 ± 72 nM; in assay [7], 1.08 ± 0.32 nM. This compound also displayed a receptor occupancy at 0.3 mg/kg in assay [6] (po, rat frontal cortex, 0.3 mg/kg p.o.) of 5.9%. This compound registered a receptor occupancy at 1 mg/kg in assay [6] (po, rat frontal cortex, 1 mg/kg p.o.) of 25%. The receptor occupancy at 3 mg/kg in assay [6] (po, rat frontal cortex, 3 mg/kg p.o.) amounted to 43.3%. This compound also showed a receptor occupancy at 10 mg/kg in assay [6] (po, rat frontal cortex, 10 mg/kg p.o.) of 94%. In addition, the receptor occupancy at 30 mg/kg in assay [6] (po, rat frontal cortex, 30 mg/kg p.o.) worked out at 106%. In addition, the “absolute ED80 (serotonin transporter occupancy)” value in assay [6] (rat, p.o.) amounted to 7.1 mg/kg. In addition, in assay [8] (po, p.o., read-out: ED50 (reduction of pain behavior)), the 50% effective dose (ED50) is 13.4 mg/kg. Besides, the “% reduction in total time licking” value in assay [8] (1 mg/kg p.o.) came out at 4.5%; in assay [8] (3 mg/kg p.o.), 14.4%; in assay [8] (10 mg/kg p.o.) it was 38.0%; in assay [8] (30 mg/kg p.o.) it was 78.4%.

In general, IC50 refers to the concentration at which inhibition is half-maximal. By inhibition is commonly meant the change of the read-out against control, counted positive when it falls. What is called Ki is the dissociation constant of the complex between target and ligand, obtained from inhibition or displacement. As a reminder, the ED50 is the dose that gives a 50% effect, or the effect in half of the subjects.
